Data reported in publication PMC4951196, “The Lamin B receptor is essential for cholesterol synthesis and perturbed by disease-causing mutations” (eLife, 2016).

Target: T1, Lamin B receptor (LBR) (Homo sapiens, UniProt Q14739)
T1 construct: Flag-tagged LBR, WT, expressed in Expi293 cells and purified
T1 sequence (Q14739 1-615): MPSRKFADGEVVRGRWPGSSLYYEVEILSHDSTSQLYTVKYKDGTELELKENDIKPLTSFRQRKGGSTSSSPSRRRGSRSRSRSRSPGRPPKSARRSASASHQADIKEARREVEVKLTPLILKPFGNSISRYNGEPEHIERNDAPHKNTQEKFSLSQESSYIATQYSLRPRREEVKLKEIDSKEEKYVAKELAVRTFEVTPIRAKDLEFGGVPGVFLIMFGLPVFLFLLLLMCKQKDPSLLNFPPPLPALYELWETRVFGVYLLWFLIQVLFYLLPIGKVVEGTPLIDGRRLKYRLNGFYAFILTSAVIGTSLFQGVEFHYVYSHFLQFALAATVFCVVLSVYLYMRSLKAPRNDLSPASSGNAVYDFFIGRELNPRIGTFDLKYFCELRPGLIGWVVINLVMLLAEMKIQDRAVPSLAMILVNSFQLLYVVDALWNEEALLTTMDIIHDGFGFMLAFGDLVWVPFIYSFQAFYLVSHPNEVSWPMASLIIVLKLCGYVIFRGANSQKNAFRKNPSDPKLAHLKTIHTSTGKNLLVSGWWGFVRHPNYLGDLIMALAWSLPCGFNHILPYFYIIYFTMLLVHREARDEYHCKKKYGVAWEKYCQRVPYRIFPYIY
Test: intrinsic tryptophan fluorescence titration of purified LBR
Assay type: binding

In the case of `NC(=O)C1=CN([C@@H]2O[C@H](COP(=O)(O)OP(=O)(O)OC[C@H]3O[C@@H](n4cnc5c(N)ncnc54)[C@H](OP(=O)(O)O)[C@@H]3O)[C@@H](O)[C@H]2O)C=CC1` [NADPH], the Kd is reported as 24.2 µM.
